# Assay results reported in US12077503B2, “Substituted cyclic amides and their use as herbicides” (FMC CORPORATION, priority 2015, dated 2024).
# Legend:
# Assay type in all cases: in vivo
# Kochia (Kochia scoparia) [1] = assay: Test A preemergence; conditions: Bassia scoparia, pre-emergence, 240 h, 0 to 100 scale where 0 is no effect and 100 is complete control, read-out: Kochia plant response rating
# Outline: (§1)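 Compounds were formulated in a non-phytotoxic solvent mixture with surfactant and applied as a preemergence directed soil spray after seeding, or sprayed postemergence over plants 2 to 10 cm tall at the one- to two-leaf stage. Evaluation after about 10 d compared treated with untreated controls, using a scale from 0 (no effect) to 100 (complete control).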
# [2] = tested on: barnyardgrass (Echinochloa crus-galli); assay: Test A preemergence; conditions: Echinochloa crus-galli, pre-emergence, 240 h, 0 to 100 scale where 0 is no effect and 100 is complete control, read-out: Barnyardgrass plant response rating
# Outline: as §1
# [3] = tested on: giant foxtail (Setaria faberii); assay: Test A preemergence; conditions: Setaria faberi, pre-emergence, 240 h, 0 to 100 scale where 0 is no effect and 100 is complete control, read-out: Foxtail, Giant plant response rating
# Outline: as §1
# [4] = tested on: pigweed (Amaranthus retroflexus); assay: Test A preemergence; conditions: Amaranthus retroflexus, pre-emergence, 240 h, 0 to 100 scale where 0 is no effect and 100 is complete control, read-out: Pigweed plant response rating
# [5] = tested on: ragweed (common ragweed, Ambrosia elatior); assay: Test A preemergence; conditions: Ambrosia artemisiifolia, pre-emergence, 240 h, 0 to 100 scale where 0 is no effect and 100 is complete control, read-out: Ragweed plant response rating
# Outline: as §1
# [6] = tested on: ryegrass, Italian (Italian ryegrass, Lolium multiflorum); assay: Test A preemergence; conditions: Lolium multiflorum, pre-emergence, 240 h, 0 to 100 scale where 0 is no effect and 100 is complete control, read-out: Ryegrass, Italian plant response rating
# Outline: as §1
# [7] = tested on: Galium (catchweed bedstraw, Galium aparine); assay: Test A postemergence; conditions: Galium, post-emergence, 240 h, read-out: Galium plant response rating (0 to 100 scale)
# Outline: as §1
# Kochia (Kochia scoparia) [8] = assay: Test A postemergence; conditions: Bassia scoparia, post-emergence, 240 h, read-out: Kochia plant response rating (0 to 100 scale)
# Outline: as §1
# [9] = tested on: barnyardgrass (Echinochloa crus-galli); assay: Test A postemergence; conditions: Echinochloa crus-galli, post-emergence, 240 h, read-out: Barnyardgrass plant response rating (0 to 100 scale)
# Outline: as §1
# [10] = tested on: blackgrass (Alopecurus myosuroides); assay: Test A postemergence; conditions: Alopecurus myosuroides, post-emergence, 240 h, read-out: Blackgrass plant response rating (0 to 100 scale)
# Outline: as §1
# corn (Zea mays) = assay: Test A postemergence; conditions: Zea mays, post-emergence, 240 h, read-out: Corn plant response rating (0 to 100 scale)
# Outline: as §1
# [11] = tested on: giant foxtail (Setaria faberii); assay: Test A postemergence; conditions: Setaria faberi, post-emergence, 240 h, read-out: Foxtail, Giant plant response rating (0 to 100 scale)
# Outline: as §1
# [12] = tested on: pigweed (Amaranthus retroflexus); assay: Test A postemergence; conditions: Amaranthus retroflexus, post-emergence, 240 h, read-out: Pigweed plant response rating (0 to 100 scale)
# Outline: as §1
# [13] = tested on: ragweed (common ragweed, Ambrosia elatior); assay: Test A postemergence; conditions: Ambrosia artemisiifolia, post-emergence, 240 h, read-out: Ragweed plant response rating (0 to 100 scale)
# Outline: as §1
# [14] = tested on: ryegrass, Italian (Italian ryegrass, Lolium multiflorum); assay: Test A postemergence; conditions: Lolium multiflorum, post-emergence, 240 h, read-out: Ryegrass, Italian plant response rating (0 to 100 scale)
# Outline: as §1
# [15] = tested on: wheat (Triticum aestivum); assay: Test A postemergence; conditions: Triticum aestivum, post-emergence, 240 h, read-out: Wheat plant response rating (0 to 100 scale)
# Outline: as §1
# [16] = tested on: barnyardgrass (Echinochloa crus-galli); assay: Test B flooded paddy test; conditions: Echinochloa crus-galli, 250 g ai/ha, Flood; 0 to 100 scale where 0 is no effect and 100 is complete control; read-out: Barnyardgrass plant response rating
# Outline: (§2)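 Flooding to 3 cm over soil accompanied treatment, which consisted of adding compound to the standing water around 2-leaf plants; depth was then maintained. Visual assessment versus controls followed at 13 to 15 d (scale 0–100, 0 meaning no effect).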
# [17] = tested on: ducksalad (Heteranthera limosa); assay: Test B flooded paddy test; conditions: Heteranthera limosa, 250 g ai/ha, Flood; 0 to 100 scale where 0 is no effect and 100 is complete control; read-out: Ducksalad plant response rating
# Outline: as §2
# rice (Oryra sativa) = assay: Test B flooded paddy test; conditions: Oryza sativa, 250 g ai/ha, Flood; 0 to 100 scale where 0 is no effect and 100 is complete control; read-out: Rice plant response rating
# Outline: as §2
# [18] = tested on: sedge, umbrella (small-flower umbrella sedge, Cyperus difformis); assay: Test B flooded paddy test; conditions: Cyperus difformis, 250 g ai/ha, Flood; 0 to 100 scale where 0 is no effect and 100 is complete control; read-out: Sedge, Umbrella plant response rating
# Outline: as §2
# [19] = 125 g ai/ha, preemergence, visual injury rating, approximately 10 d
# [20] = 125 g ai/ha, postemergence, visual injury vs untreated controls after approx. 10 d, 0 = no effect, 100 = complete control
# [21] = Postemergence, 31 g ai/ha, 0 is no effect, 100 is complete control
compound,measurement,setting,value
CN1C[C@H](c2ccc(C#N)c(F)c2)[C@@H](C(=O)Nc2cccc(F)c2F)C1=O [Compound 1192],pest or weed control at 31 g/ha,"Kochia (Kochia scoparia) [1]; 31 g ai/ha, Preemergence",0%
same,pest or weed control at 125 g/ha,Kochia (Kochia scoparia) [1]; [19],50%
same,pest or weed control at 31 g/ha,"[2]; 31 g ai/ha, Preemergence",70%
same,pest or weed control at 125 g/ha,[2]; [19],100%
same,pest or weed control at 31 g/ha,"[3]; 31 g ai/ha, Preemergence",30%
same,pest or weed control at 125 g/ha,[3]; [19],100%
same,pest or weed control at 31 g/ha,"[4]; 31 g ai/ha, Preemergence",0%
same,pest or weed control at 125 g/ha,[4]; [19],30%
same,pest or weed control at 31 g/ha,"[5]; 31 g ai/ha, Preemergence",0%
same,pest or weed control at 125 g/ha,[5]; [19],0%
same,pest or weed control at 31 g/ha,"[6]; 31 g ai/ha, Preemergence",0%
same,pest or weed control at 125 g/ha,[6]; [19],0%
same,pest or weed control at 125 g/ha,[7]; [20],50%
same,pest or weed control at 31 g/ha,[7]; [21],0%
same,pest or weed control at 125 g/ha,Kochia (Kochia scoparia) [8]; [20],40%
same,pest or weed control at 31 g/ha,Kochia (Kochia scoparia) [8]; [21],0%
same,pest or weed control at 125 g/ha,[9]; [20],100%
same,pest or weed control at 31 g/ha,[9]; [21],50%
same,pest or weed control at 125 g/ha,[10]; [20],0%
same,pest or weed control at 31 g/ha,[10]; [21],0%
same,plant injury at 125 g/ha,corn (Zea mays); [20],40%
same,plant injury at 31 g/ha,corn (Zea mays); [21],0%
same,pest or weed control at 125 g/ha,[11]; [20],70%
same,pest or weed control at 31 g/ha,[11]; [21],40%
same,pest or weed control at 125 g/ha,[12]; [20],20%
same,pest or weed control at 31 g/ha,[12]; [21],0%
same,pest or weed control at 125 g/ha,[13]; [20],0%
same,pest or weed control at 31 g/ha,[13]; [21],0%
same,pest or weed control at 125 g/ha,[14]; [20],0%
same,pest or weed control at 31 g/ha,[14]; [21],0%
same,plant injury at 125 g/ha,[15]; [20],0%
same,plant injury at 31 g/ha,[15]; [21],0%
same,pest or weed control at 250 g/ha,[16],100%
same,pest or weed control at 250 g/ha,[17],95%
same,pest or weed control at 250 g/ha,rice (Oryra sativa),30%
same,pest or weed control at 250 g/ha,[18],30%
